The source of these data is patent US12384797B2, “Thioeno[3,2-b] pyridin-7-amine compounds for treating familial dysautonomia” (PTC THERAPEUTICS, INC., priority 2019, dated 2025).

The assay concerns Elongator complex protein 1 (ELP1, also referred to as IKBKAP). The assay can be described thus: IKBKAP-HTRF assay (IKBKAP protein in lysates of FD patient-derived fibroblasts). Format: cell-based, human. As to conditions: 48 hours incubation, 7-point concentration curve. The gist of the method: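 Sandwich HTRF with two labelled anti-IKAP antibodies (overnight, 4 °C) measured IKBKAP in lysates of FD patient fibroblasts. Cells were exposed to compound for 48 h at 37 °C (7-point curve, 3.16-fold steps, triplicates). EC2x is the dose doubling IKBKAP versus DMSO control; MFI is sample ΔF divided by vehicle ΔF.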
As for `Cc1c([C@@H](C)N)sc2c(NCc3ccco3)cc(Cl)nc12` [Compound 22, 2-[(1R)-1-aminoethyl]-5-chloro-N-[(furan-2-yl)methyl]-3-methylthieno[3,2-b]pyridin-7-amine], the “EC2x for IKBKAP protein expression (concentration producing two times the amount of IKBKAP protein vs DMSO vehicle control)” value is given as “* (An EC2x>1 μM is indicated by one star (*))”; the “MFI (maximum fold increase in IKBKAP protein abundance relative to the vehicle control)” value is “** (between >1.9 and ≤2.9 is indicated by two stars (**))”.
As for `C[C@H](N)C(O)c1sc2c(NCc3nccs3)cc(Cl)nc2c1Br` (stereo partly drawn) [Compound 159, (2S)-2-amino-1-(3-bromo-5-chloro-7-{[(1,3-thiazol-2-yl)methyl]amino}thieno[3,2-b]pyridin-2-yl)propan-1-ol], the “EC2x for IKBKAP protein expression (concentration producing two times the amount of IKBKAP protein vs DMSO vehicle control)” value is “*** (between >0.02 μM and ≤0.5 μM is indicated by three stars (***))”; the “MFI (maximum fold increase in IKBKAP protein abundance relative to the vehicle control)” value was “** (between >1.9 and ≤2.9 is indicated by two stars (**))”.
Consider `CC[C@H](N)Cc1sc2c(NCc3cccs3)cc(Cl)nc2c1Cl` [Compound 83, 2-[(2S)-2-aminobutyl]-3,5-dichloro-N-[(thiophen-2-yl)methyl]thieno[3,2-b]pyridin-7-amine], for which the “EC2x for IKBKAP protein expression (concentration producing two times the amount of IKBKAP protein vs DMSO vehicle control)” value is given as “***** (≤0.005 μM is indicated by five stars (*****))” and the “MFI (maximum fold increase in IKBKAP protein abundance relative to the vehicle control)” value is “***** (>4.9 is indicated by five stars (*****))”.
As to `Clc1cc(NCc2ccco2)c2sccc2n1` [Compound 1, 5-chloro-N-[(furan-2-yl)methyl]thieno[3,2-b]pyridin-7-amine], the “EC2x for IKBKAP protein expression (concentration producing two times the amount of IKBKAP protein vs DMSO vehicle control)” value is “* (An EC2x>1 μM is indicated by one star (*))”; the “MFI (maximum fold increase in IKBKAP protein abundance relative to the vehicle control)” value was “*** (between >2.9 and ≤3.9 is indicated by three stars (***))”.
For the molecule `Cc1c([C@H](C)N)sc2c(NCc3ccco3)cc(Cl)nc12` [Compound 21, 2-[(1S)-1-aminoethyl]-5-chloro-N-[(furan-2-yl)methyl]-3-methylthieno[3,2-b]pyridin-7-amine], the “EC2x for IKBKAP protein expression (concentration producing two times the amount of IKBKAP protein vs DMSO vehicle control)” value was “**** (between >0.005 μM and ≤0.02 μM is indicated by four stars (****))”; the “MFI (maximum fold increase in IKBKAP protein abundance relative to the vehicle control)” value was “**** (between >3.9 and ≤4.9 is indicated by four stars (****))”.
Regarding `N[C@@H](CF)Cc1sc2c(NCc3cccs3)cc(Cl)nc2c1Cl` [Compound 84, 2-[(2R)-2-amino-3-fluoropropyl]-3,5-dichloro-N-[(thiophen-2-yl)methyl]thieno[3,2-b]pyridin-7-amine], the “EC2x for IKBKAP protein expression (concentration producing two times the amount of IKBKAP protein vs DMSO vehicle control)” value was “***** (≤0.005 μM is indicated by five stars (*****))” and the “MFI (maximum fold increase in IKBKAP protein abundance relative to the vehicle control)” value is on record as “***** (>4.9 is indicated by five stars (*****))”.
Taken in the same sequence, the figures for `N[C@@H](CCO)Cc1sc2c(NCc3nccs3)cc(Cl)nc2c1Cl` [Compound 48, (3S)-3-amino-4-(3,5-dichloro-7-{[(1,3-thiazol-2-yl)methyl]amino}thieno[3,2-b]pyridin-2-yl)butan-1-ol] were “***** (≤0.005 μM is indicated by five stars (*****))” and “***** (>4.9 is indicated by five stars (*****))”.
For `Cc1c(C[C@@H](N)C(=O)Nc2ccncc2)sc2c(NCc3ccco3)cc(Cl)nc12` [Compound 140, 3-(5-chloro-7-{[(furan-2-yl)methyl]amino}-3-methylthieno[3,2-b]pyridin-2-yl)-N-pyridin-4-yl-D-alaninamide] the same measures were “***** (≤0.005 μM is indicated by five stars (*****))” and “***** (>4.9 is indicated by five stars (*****))”.
Taken in the same sequence, the figures for `CC(C)C[C@H](N)Cc1sc2c(NCc3nccs3)cc(Cl)nc2c1Br` [Compound 62, 2-[(2S)-2-amino-4-methylpentyl]-3-bromo-5-chloro-N-[(1,3-thiazol-2-yl)methyl]thieno[3,2-b]pyridin-7-amine] were “***** (≤0.005 μM is indicated by five stars (*****))” and “***** (>4.9 is indicated by five stars (*****))”.
Regarding “2-[(2S)-2-aminobutyl]-5-chloro-3-cyclopropyl-N-[(1,3-thiazol-2-yl)methyl]thieno[3,2-b]pyridin-7-amine [Compound 86]”, the “EC2x for IKBKAP protein expression (concentration producing two times the amount of IKBKAP protein vs DMSO vehicle control)” value is “*** (between >0.02 μM and ≤0.5 μM is indicated by three stars (***))”; the “MFI (maximum fold increase in IKBKAP protein abundance relative to the vehicle control)” value was “**** (between >3.9 and ≤4.9 is indicated by four stars (****))”.
`Cc1c(C[C@@H](N)C(=O)Nc2ccnn2C)sc2c(NCc3ccco3)cc(Cl)nc12` [Compound 145, 3-(5-chloro-7-{[(furan-2-yl)methyl]amino}-3-methylthieno[3,2-b]pyridin-2-yl)-N-(1-methyl-1H-pyrazol-5-yl)-D-alaninamide]: the “EC2x for IKBKAP protein expression (concentration producing two times the amount of IKBKAP protein vs DMSO vehicle control)” value was “*** (between >0.02 μM and ≤0.5 μM is indicated by three stars (***))”; the “MFI (maximum fold increase in IKBKAP protein abundance relative to the vehicle control)” value was “***** (>4.9 is indicated by five stars (*****))”.
`C[C@H](N)C(F)c1sc2c(NCc3ccco3)cc(Cl)nc2c1Br` (stereo partly drawn) [Compound 154, 2-[(2S)-2-amino-1-fluoropropyl]-3-bromo-5-chloro-N-[(furan-2-yl)methyl]thieno[3,2-b]pyridin-7-amine]: the “EC2x for IKBKAP protein expression (concentration producing two times the amount of IKBKAP protein vs DMSO vehicle control)” value is reported as “***** (≤0.005 μM is indicated by five stars (*****))”; the “MFI (maximum fold increase in IKBKAP protein abundance relative to the vehicle control)” value is “**** (between >3.9 and ≤4.9 is indicated by four stars (****))”.
As for `C=C[C@H](N)Cc1cc2nc(Cl)cc(NCc3ccco3)c2s1` [Compound 119, 2-[(2R)-2-aminobut-3-en-1-yl]-5-chloro-N-[(furan-2-yl)methyl]thieno[3,2-b]pyridin-7-amine], the “EC2x for IKBKAP protein expression (concentration producing two times the amount of IKBKAP protein vs DMSO vehicle control)” value was “**** (between >0.005 μM and ≤0.02 μM is indicated by four stars (****))”; the “MFI (maximum fold increase in IKBKAP protein abundance relative to the vehicle control)” value is “**** (between >3.9 and ≤4.9 is indicated by four stars (****))”.
As for `N[C@@H](CO)Cc1cc2nc(Cl)cc(NCc3cccs3)c2s1` [Compound 162, (2R)-2-amino-3-(5-chloro-7-{[(thiophen-2-yl)methyl]amino}thieno[3,2-b]pyridin-2-yl)propan-1-ol], the “EC2x for IKBKAP protein expression (concentration producing two times the amount of IKBKAP protein vs DMSO vehicle control)” value is reported as “***** (≤0.005 μM is indicated by five stars (*****))”; the “MFI (maximum fold increase in IKBKAP protein abundance relative to the vehicle control)” value is “**** (between >3.9 and ≤4.9 is indicated by four stars (****))”.
Regarding `N[C@@H](CCF)Cc1sc2c(NCc3ccco3)cc(Cl)nc2c1Cl` [Compound 93, 2-[(2S)-2-amino-4-fluorobutyl]-3,5-dichloro-N-[(furan-2-yl)methyl]thieno[3,2-b]pyridin-7-amine], the “EC2x for IKBKAP protein expression (concentration producing two times the amount of IKBKAP protein vs DMSO vehicle control)” value is on record as “***** (≤0.005 μM is indicated by five stars (*****))” and the “MFI (maximum fold increase in IKBKAP protein abundance relative to the vehicle control)” value is on record as “***** (>4.9 is indicated by five stars (*****))”.
